Reference: patent US20050209320A1 (priority 2003, published 2005)
Like-named read-outs stand apart in the source and are kept apart here.

Columns and labels:
[1] = tested on: LNCaP prostate cancer cells (express AR)
Androgen Receptor (AR) = target: T1, Androgen Receptor (AR) (Rattus norvegicus, UniProt P15207); format: binding
T1 sequence (P15207 1-902): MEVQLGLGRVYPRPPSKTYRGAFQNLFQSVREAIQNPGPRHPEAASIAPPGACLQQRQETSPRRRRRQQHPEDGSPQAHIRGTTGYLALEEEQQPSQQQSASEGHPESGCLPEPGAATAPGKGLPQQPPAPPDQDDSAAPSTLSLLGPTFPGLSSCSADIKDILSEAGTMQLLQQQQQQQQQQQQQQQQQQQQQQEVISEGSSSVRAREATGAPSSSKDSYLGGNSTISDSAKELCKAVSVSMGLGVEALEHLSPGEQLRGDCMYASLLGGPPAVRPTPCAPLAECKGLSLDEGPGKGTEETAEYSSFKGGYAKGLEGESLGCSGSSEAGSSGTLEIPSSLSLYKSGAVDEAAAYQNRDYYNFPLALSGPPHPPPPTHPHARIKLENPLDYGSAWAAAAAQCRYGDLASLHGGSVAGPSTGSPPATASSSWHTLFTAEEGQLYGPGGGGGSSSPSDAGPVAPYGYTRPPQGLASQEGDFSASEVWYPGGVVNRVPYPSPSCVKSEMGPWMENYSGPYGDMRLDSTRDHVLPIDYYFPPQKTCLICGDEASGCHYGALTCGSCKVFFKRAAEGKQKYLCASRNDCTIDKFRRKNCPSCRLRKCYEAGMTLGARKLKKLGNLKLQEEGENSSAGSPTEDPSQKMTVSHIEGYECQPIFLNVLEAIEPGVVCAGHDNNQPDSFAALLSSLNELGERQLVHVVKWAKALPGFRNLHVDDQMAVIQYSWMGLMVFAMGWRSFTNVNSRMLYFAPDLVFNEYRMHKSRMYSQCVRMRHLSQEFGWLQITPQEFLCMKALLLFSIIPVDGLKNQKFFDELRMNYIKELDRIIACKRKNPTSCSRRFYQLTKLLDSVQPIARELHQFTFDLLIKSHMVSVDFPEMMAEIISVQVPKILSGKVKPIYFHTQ

[2] = tested on: LNCaP prostate cancer cells (express AR); conditions: for IC50: read-out: Growth Curve LNCaP
[3] = tested on: CV-1 monkey kidney cells (do not express AR); conditions: for IC50: read-out: Growth Curve CV-1
[4] = tested on: LNCaP prostate cancer cells (express AR); assay: cells; conditions: Homo sapiens, 120 h, read-out: Growth Curve LNCaP

With `OCCN(CCO)c1ccc(O)cc1` [Compound 4] the “cytotoxicity in LNCaP cells” value [1] was “nontoxic” and the “Ki (nM)” value (Androgen Receptor (AR)) was “DNB”.

For `C[C@](O)(COc1ccc(N(CCCl)CCCl)cc1)C(=O)Nc1ccc(C#N)c(I)c1.Cl` [Compound 7], the “cytotoxicity / cell growth inhibition in LNCaP cells” value [2] was “potent and selective cell growth inhibition effect”, the IC50 [2] was 0.33 µM and the IC50 [3] was 2.61 µM.

`C[C@](O)(CSc1ccc(OC(=O)N(CCCl)CCCl)cc1)C(=O)Nc1ccc([N+](=O)[O-])c(C(F)(F)F)c1` [Compound 6] was tested, and the IC50 [2] was 0.8 µM and the IC50 [3] was 4.65 µM.

In the case of `C[C@](O)(CS(=O)(=O)c1ccc(OC(=O)N(CCCl)CCCl)cc1)C(=O)Nc1ccc([N+](=O)[O-])c(C(F)(F)F)c1` [Compound 10], the IC50 [2] is reported as 1.5 µM and the IC50 [3] is reported as 2.6 µM.

`C[C@](O)(COc1ccc(N(CCCl)CCCl)cc1)C(=O)Nc1ccc(C#N)c(C(F)(F)F)c1.Cl` [Compound 1] was tested, and the IC50 [2] was 0.86 µM, the “cytotoxicity in CV-1 cells” value [3] was “cytotoxic” and the “potency in CV-1 cells less than in LNCaP cells” value [3] was “approximately 3.5 fold”. The IC50 [3] was 1.94 µM.

`C[C@](O)(COc1ccc(N(CCCl)CCCl)cc1)C(=O)Nc1ccc([N+](=O)[O-])c(C(F)(F)F)c1.Cl` [Compound 8] was tested, and the “cytotoxicity / cell growth inhibition in LNCaP cells” value [2] was “potent and selective cell growth inhibition effect”, the IC50 [2] was 0.81 µM and the IC50 [3] was 5.2 µM.

With `C[C@](O)(COc1ccc(N(CCO)CCO)cc1)C(=O)Nc1ccc(C#N)c(C(F)(F)F)c1` [Compound 2] the “cytotoxicity / cell growth inhibition in LNCaP cells” value [2] was “not cytotoxic”, the max inhibition [2] was “Trypan Blue (max 65% inhibition)” and the IC50 [4] was 0.77 µM. For the same compound, the “cytotoxicity in CV-1 cells” value [3] was “not cytotoxic”.
